Measurements published in patent USRE30241E, “Esters of 3-(hydroxy or hydroxymethyl)-4-hydroxyphenyl aminomethyl ketones” (Sterling Drug Inc., priority 1970, dated 1980).
Counter-ions that a name gives are not always drawn. Like-named read-outs stand apart in the source and are kept apart here.

System: carbachol- or histamine-induced bronchoconstriction
Assay: Bronchodilator Test Method I, anesthetized dog, intravenous activity
Format: in vivo
Settings: Canis lupus familiaris, read-out: Bronchodilatation; for inhibition in vivo at 0.075 mg/kg: 75 mcg/kg i.v.; for inhibition in vivo at […]: 150 mcg/kg i.v.; for inhibition in vivo at 0.3 mg/kg: 300 mcg/kg i.v.; for inhibition in vivo at 0.02 mg/kg: 20 mcg/kg i.v.; for inhibition in vivo at 0.1 mg/kg: 100 mcg/kg i.v.; for inhibition in vivo at 0.005 mg/kg: 5 mcg/kg i.v.; for inhibition in vivo at 0.152 mg/kg: 152 mcg/kg i.v.; for inhibition in vivo at 0.304 mg/kg: 304 mcg/kg i.v.; for inhibition in vivo at 0.294 mg/kg: 294 mcg/kg i.v.; for inhibition in vivo at 1.176 mg/kg: 1176 mcg/kg i.v.; for inhibition in vivo at 0.147 mg/kg: 147 mcg/kg i.v.; for inhibition in vivo at 0.095 mg/kg: 95 mcg/kg i.v.; for inhibition in vivo at 0.19 mg/kg: 190 mcg/kg i.v.; for inhibition in vivo at 0.38 mg/kg: 380 mcg/kg i.v.; for inhibition in vivo at 0.014 mg/kg: 14 mcg/kg i.v.; for inhibition in vivo at 0.056 mg/kg: 56 mcg/kg i.v.
Method: Bronchodilator activity was tested in anesthetized dogs (Test Method I) and in vitro on the perfused guinea pig lung (Test Method II), using the following pharmacological test procedures
Male and female dogs weighing 9-18 kg. each were anesthetized with pentobarbital sodium (30 mg./kg. i.v.). Each animal, with thorax opened at the midsternum, was maintained under artificial ventilation using a constant volume pump (250 ml./stroke; 10 to 12 strokes per minute) attached to the tracheal cannula. The flow of air was controlled by a glass or plastic valve which closed and opened respectively on inflow and outflow of the air to and from the tracheal cannula. Bronchoconstriction and/or bronchodilatation were measured from changes in the basal airway pressure reflected by a transducer attached to the sidearm of the cannula relayed to a polygraph.
Control bronchoconstrictions were induced by intravenous injections of carbachol (choline chloride carbamate) in doses ranging from 4 to 6 micrograms per kilogram or histamine diphosphate in doses ranging from 35 to 45 micrograms per kilogram.
Solutions of the test compounds were prepared in distilled water or in saline (for infusion). […] These solutions were then tested for bronchodilator activity in three ways, viz. (1) by mixing a graded dose of test compound with the constant does of carbachol or histamine in a syringe and injecting the mixture into the femoral vein of the dog, (2) by producing the bronchoconstriction first and injecting the test compound at the time of maximum constriction, and (3) by injecting the test compound first followed by carbachol or histamine in 1-10 minutes. Injections were repeated at 20-30 minutes. Bronchodilator values were obtained by measuring the areas under the response polygraph tracings (the first 5 munite period) of carbachol or histamine controls and of the experimentals using a planimeter. Decrease in the area thus measured was expressed as a percent bronchodilatation in reference to the area of control carbachol or histamine constriction. The mean bronchodilatations (the reductions in constrictions) were plotted against the doses administered and the mean effective dose (ED50) was estimated in micrograms/kilogram from the does-response curves. Blood pressure recording was taken from the femoral artery using an arterial transducer relayed to a polygraph.

**Q.** How did the inhibition in vivo at 0.075 mg/kg (5 min, 5 min) turn out when CC(=O)OC(CNC(C)(C)C)c1ccc(OC(=O)c2ccc(C)cc2)c(OC(=O)c2ccc(C)cc2)c1 (stereo not drawn) [Example 134, 3,4-bis(p-toluyloxy)-alpha-(tert-butylaminomethyl)benzyl acetate] was run?
**A.** 25%

**Q.** What about the inhibition in vivo at […] (5 min, 5 min) of the same compound?
**A.** 54%

**Q.** And the inhibition in vivo at 0.3 mg/kg (5 min, 5 min)?
**A.** 47%

**Q.** What about the inhibition in vivo at 0.075 mg/kg (0.5 h, 30 min) of the same compound?
**A.** 21%

**Q.** And the inhibition in vivo at […] (0.5 h, 30 min)?
**A.** 58%

**Q.** And the inhibition in vivo at 0.075 mg/kg (1 h, 60 min)?
**A.** 5%

**Q.** What about the inhibition in vivo at […] (1 h, 60 min) of the same compound?
**A.** 52%

**Q.** What about the inhibition in vivo at 0.075 mg/kg (2 h, 120 min) of the same compound?
**A.** 0%

**Q.** And the inhibition in vivo at […] (2 h, 120 min)?
**A.** 35%

**Q.** And the inhibition in vivo at 0.075 mg/kg (3 h, 180 min)?
**A.** 0%

**Q.** What about the inhibition in vivo at […] (3 h, 180 min) of the same compound?
**A.** 20%

**Q.** And the inhibition in vivo at […] (4 h, 240 min)?
**A.** 0%

**Q.** And the inhibition in vivo at 0.3 mg/kg (4 h, 240 min)?
**A.** 36%

**Q.** CC(C)CC(=O)OCc1cc(C(O)CNC(C)(C)C)ccc1OC(=O)CC(C)C (stereo not drawn) [Example 136, 3-(isovaleryloxymethyl)-4-(isovaleryloxy)-alpha-(tert-butylaminomethyl)benzyl alcohol methanesulfonate] was tested. Which inhibition in vivo at 0.02 mg/kg (5 min, 5 min) did it give?
**A.** 36%

**Q.** And the inhibition in vivo at 0.1 mg/kg (5 min, 5 min)?
**A.** 82%

**Q.** And the inhibition in vivo at 0.02 mg/kg (0.5 h, 30 min)?
**A.** 53%

**Q.** What about the inhibition in vivo at 0.1 mg/kg (0.5 h, 30 min) of the same compound?
**A.** 80%

**Q.** And the inhibition in vivo at 0.005 mg/kg (1 h, 60 min)?
**A.** 47%

**Q.** What about the inhibition in vivo at 0.02 mg/kg (1 h, 60 min) of the same compound?
**A.** 57%

**Q.** What about the inhibition in vivo at 0.1 mg/kg (1 h, 60 min) of the same compound?
**A.** 70%

**Q.** And the inhibition in vivo at 0.02 mg/kg (2 h, 120 min)?
**A.** 40%

**Q.** What about the inhibition in vivo at 0.1 mg/kg (2 h, 120 min) of the same compound?
**A.** 60%

**Q.** And the inhibition in vivo at 0.005 mg/kg (3 h, 180 min)?
**A.** 53%

**Q.** What about the inhibition in vivo at 0.02 mg/kg (3 h, 180 min) of the same compound?
**A.** 12%

**Q.** What about the inhibition in vivo at 0.1 mg/kg (3 h, 180 min) of the same compound?
**A.** 42%

**Q.** And the inhibition in vivo at 0.005 mg/kg (4 h, 240 min)?
**A.** 46%

**Q.** What about the inhibition in vivo at 0.02 mg/kg (4 h, 240 min) of the same compound?
**A.** 7%

**Q.** And the inhibition in vivo at 0.005 mg/kg (5 h, 300 min)?
**A.** 46%

**Q.** What about the inhibition in vivo at 0.02 mg/kg (5 h, 300 min) of the same compound?
**A.** 12%

**Q.** And the inhibition in vivo at 0.1 mg/kg (5 h, 300 min)?
**A.** 32%

**Q.** What does the source list for CCC(NC(C)C)C(O)c1ccc(OC(=O)c2ccc(C)cc2)c(OC(=O)c2ccc(C)cc2)c1 (stereo not drawn) [Example 132, 3,4-bis(p-toluyloxy)-alpha-[1-(isopropylamino)propyl]benzyl alcohol hydrochloride]?
**A.** inhibition in vivo at 0.152 mg/kg (5 min, 5 min): 67%; inhibition in vivo at 0.304 mg/kg (5 min, 5 min): 100%; inhibition in vivo at 0.152 mg/kg (0.5 h, 30 min): 75%; inhibition in vivo at 0.304 mg/kg (0.5 h, 30 min): 67%; inhibition in vivo at 0.152 mg/kg (1 h, 60 min): 71%; inhibition in vivo at 0.152 mg/kg (2 h, 120 min): 52%; inhibition in vivo at 0.152 mg/kg (3 h, 180 min): 43%; inhibition in vivo at 0.152 mg/kg (4 h, 240 min): 0%; inhibition in vivo at 0.152 mg/kg (5 h, 300 min): 0%; inhibition in vivo at 0.304 mg/kg (5 h, 300 min): 0%

**Q.** For CNCC(O)c1ccc(OC(=O)c2ccc(C)cc2)c(OC(=O)c2ccc(C)cc2)c1 (stereo not drawn) [Example 126, 3,4-bis(p-toluyloxy)-alpha-(methylaminomethyl)benzyl alcohol methanesulfonate], which inhibition in vivo at 0.294 mg/kg (1 min, 1-2 min) is on record?
**A.** 13%

**Q.** What about the inhibition in vivo at 1.176 mg/kg (1 min, 1-2 min) of the same compound?
**A.** 100%

**Q.** What about the inhibition in vivo at 0.147 mg/kg (0.5 h, 30 min) of the same compound?
**A.** 27%

**Q.** And the inhibition in vivo at 0.294 mg/kg (0.5 h, 30 min)?
**A.** 8%

**Q.** And the inhibition in vivo at 1.176 mg/kg (0.5 h, 30 min)?
**A.** 47%

**Q.** And the inhibition in vivo at 0.147 mg/kg (1 h, 60 min)?
**A.** 15%

**Q.** What about the inhibition in vivo at 0.294 mg/kg (1 h, 60 min) of the same compound?
**A.** 17%

**Q.** And the inhibition in vivo at 1.176 mg/kg (1 h, 60 min)?
**A.** 20%

**Q.** For Cc1ccccc1C(=O)Oc1ccc(C(O)CNC(C)(C)C)cc1OC(=O)c1ccccc1C (stereo not drawn) [Example 111, 3,4-bis(o-toluyloxy)-alpha-(tert-butylaminomethyl)benzyl alcohol methanesulfonate], which inhibition in vivo at 0.0095 mg/kg (1 min, 9.5 mcg/kg i.v., 1-2 min) is on record?
**A.** 0%

**Q.** And the inhibition in vivo at 0.095 mg/kg (1 min, 1-2 min)?
**A.** 34%

**Q.** And the inhibition in vivo at 0.19 mg/kg (1 min, 1-2 min)?
**A.** 27%

**Q.** What about the inhibition in vivo at 0.38 mg/kg (1 min, 1-2 min) of the same compound?
**A.** 33%

**Q.** What about the inhibition in vivo at 0.095 mg/kg (0.5 h, 30 min) of the same compound?
**A.** 36%

**Q.** And the inhibition in vivo at 0.38 mg/kg (0.5 h, 30 min)?
**A.** 53%

**Q.** And the inhibition in vivo at 0.19 mg/kg (1 h, 60 min)?
**A.** 18%

**Q.** What about the inhibition in vivo at 0.0475 mg/kg (2 h, 47.5 mcg/kg i.v., 120 min) of the same compound?
**A.** 0%

**Q.** And the inhibition in vivo at 0.095 mg/kg (2 h, 120 min)?
**A.** 32%

**Q.** And the inhibition in vivo at 0.19 mg/kg (2 h, 120 min)?
**A.** 31%

**Q.** What about the inhibition in vivo at 0.38 mg/kg (2 h, 120 min) of the same compound?
**A.** 55%

**Q.** What about the inhibition in vivo at 0.095 mg/kg (3 h, 180 min) of the same compound?
**A.** 48%

**Q.** And the inhibition in vivo at 0.19 mg/kg (3 h, 180 min)?
**A.** 35%

**Q.** And the inhibition in vivo at 0.38 mg/kg (3 h, 180 min)?
**A.** 38%

**Q.** And the inhibition in vivo at 0.095 mg/kg (4 h, 240 min)?
**A.** 41%

**Q.** What about the inhibition in vivo at 0.19 mg/kg (4 h, 240 min) of the same compound?
**A.** 41%

**Q.** And the inhibition in vivo at 0.095 mg/kg (5 h, 300 min)?
**A.** 50%

**Q.** What about the inhibition in vivo at 0.19 mg/kg (5 h, 300 min) of the same compound?
**A.** 25%

**Q.** Which inhibition in vivo at 0.014 mg/kg (5 min, 5 min) does the source give for COc1ccc(CC(=O)Oc2ccc(C(O)CNC(C)(C)C)cc2OC(=O)Cc2ccc(OC)cc2)cc1 (stereo not drawn) [Example 118, 3,4-bis(p-methoxyphenylacetoxy)-alpha-(tert-butylaminomethyl)benzyl alcohol hydrochloride] here?
**A.** 68%

**Q.** What about the inhibition in vivo at 0.056 mg/kg (5 min, 5 min) of the same compound?
**A.** 100%

**Q.** And the inhibition in vivo at 0.014 mg/kg (0.5 h, 30 min)?
**A.** 61%

**Q.** And the inhibition in vivo at 0.056 mg/kg (0.5 h, 30 min)?
**A.** 60%

**Q.** What about the inhibition in vivo at 0.014 mg/kg (1 h, 60 min) of the same compound?
**A.** 35%

**Q.** And the inhibition in vivo at 0.056 mg/kg (1 h, 60 min)?
**A.** 45%

**Q.** And the inhibition in vivo at 0.014 mg/kg (2 h, 120 min)?
**A.** 7%

**Q.** And the inhibition in vivo at 0.056 mg/kg (2 h, 120 min)?
**A.** 12%
